Results on ten compounds are retold here after patent US4649200A, “Substituted pyrroles with opioid receptor activity” (Regents of the University of Minnesota, priority 1986, dated 1987).

One test deals with T1, mu receptor (Cavia porcellus, UniProt A0ACM8Q262).
T1 construct: antagonism of morphine
In words: Antagonism of morphine sulfate (mu agonist) on the GPI, IC50 ratio. It counts as cell-based, guinea pig. As for the experimental part:
(§1) Ilea from guinea pigs were taken approximately 10 cm from the ileocaecal junction, and a strip of longitudinal muscle with the myenteric plexus attached was prepared by method of Rang et al., Brit. J. Phamacol., 22, 356 (1964), the disclosure of which is incorporated by reference herein. A 1 cm portion of this strip was then mounted between two platinum electrodes placed in a 10 ml organ bath and connected to an isometric transducer; contractions were recorded on a polygraph. Contractions of the ileal strip were initiated by supramaximal rectangular pulses in all preparations (80 V of 0.5 ms duration at a frequency of 0.1 Hz). Krebs bicarbonate solution containing 1.25 uM chlorpheniramine maleate was the bathing solution and was continuously bubbled with 95% O2 and 5% CO2. The organ bath was maintained at 36°-37° C. The longitudinal muscle strip was allowed to equilibrate with continuous stimulation for a minimun of 90 min. Cumulative concentration-response curves were determined after drugs were added to the bath in 10- to 50-uL amounts and washed out with two 10 ml portions of buffer after noting their maximum effects.

In test [1] the target is T2, kappa opioid receptor (Cavia porcellus, UniProt P41144).
T2 construct: a strip of longitudinal muscle with the myenteric plexus attached was prepared; from tissue; host or cells: guinea pig ileal longitudinal muscle strip with myenteric plexus
In words: Antagonism of ethylketazocine (EK, kappa agonist) on the GPI, IC50 ratio. Format: cell-based, guinea pig. As for the experimental part: as §1

A further test deals with mouse vas deferens (MVD). Briefly: Agonism on the mouse vas deferens preparation (MVD). Format: cell-based. To be noted: for Emax at 1 µM: Mus musculus, read-out: MVD Agonism (maximal response at highest concentration). The procedure: (§2) This assay was performed according to the description by Henderson et al., Brit. J. Pharmacol., 46, 764 (1972), the disclosure of which is incorporated by reference herein. Both vasa deferentia were dissected out of mice and mounted singly through two platinum ring electrodes in a 10 ml organ bath. The bath contained Krebs bicarbonate solution that was continuously bubbled with 95% O2 and 5% CO2. The organ bath was maintained at 37° C. The tissue was attached to an isometric transducer and stimulated transmurally with rectangular pulses ([…], 1 ms duration, supramaximal voltage). Drugs were added cumulatively to the bath in 10 to 50 ul amounts and washed out after noting their maximum effect.
(§3) Compounds IIIa-IIIh and TENA were tested on the electrically-stimulated guniea pig ileal longitudinal muscle (GPI) and, where appropriate, the mouse vas deferens preparation (MVD).
(§4) ^a For ligands that are partial or pure antagonists, the highest
(§5) concentration and maximal response is given. Potencies of pure agonists

Test [2] deals with guinea pig ileal longitudinal muscle (GPI). In words: Agonism on electrically stimulated guinea pig ileal longitudinal muscle (GPI). Format: cell-based. The procedure: as §1, §3, §4, §5
(IIIeh) are relative to morphine = 1.

Another test addresses T3, delta opioid receptor (Mus musculus, UniProt P32300).
T3 construct: Both vasa deferentia were dissected out of mice; from tissue; host or cells: mouse vas deferens
Briefly: Antagonism of DADLE (selective delta agonist) on the MVD, IC50 ratio. It counts as cell-based. As to conditions: IC50 of agonist in presence of antagonist / control IC50. The procedure:
as §2

Another test has as its system mu receptors. To be noted: cited from earlier work.
Test [3] has as its target T2, kappa opioid receptor. Briefly: Antagonism of U50488H (selective kappa agonist) on the GPI, IC50 ratio. To be noted: for GPI IC50 Ratio, U50488H: IC50 of agonist in presence of antagonist / control IC50. Format: cell-based, guinea pig. As for the experimental part:
as §1

The next test concerns kappa-opioid receptors. In words: Kappa-opioid antagonist selectivity (comparison of IC50 ratios, GPI and MVD). Format: cell-based, guinea pig. As for the experimental part: as §1
This assay was performed according to the description by Henderson et al., Brit. J. Pharmacol., 46, 764 (1972), the disclosure of which is incorporated by reference herein. […]

Test [4] in a line: Mouse writhing procedure, antagonism of agonist. Format: in vivo. As to conditions: morphine 50 nmol s.c.; antagonist ICV. The procedure:
(§6) Mice were treated with 50 nmol of the agonist (morphine, EK, or U50488H) subcutaneously and the antagonist was administered intracerebroventricularly (ICV).

The target in the next test is T4, kappa receptors (Mus musculus, UniProt P33534).
T4 construct: tested in vivo using the mouse writhing procedure; from tissue
In words: Mouse writhing procedure, antagonism of agonist. As to conditions: antagonist ICV. Format: in vivo. As for the experimental part:
as §6
In general terms: In writhing tests, fewer writhes than in controls are read as antinociception.

A further test relates to kappa receptor. To be noted: cited from earlier work.
Setting [5] is: antagonist 20 nM, IC50 of agonist in presence of antagonist / control IC50.
[6] abbreviates: Cavia porcellus, read-out: GPI Agonism (maximal response at highest concentration).
The mark [7] stands for this setting: antagonist 2 nM, IC50 of agonist in presence of antagonist / control IC50.

Each structure is given as a SMILES string. Entries after “also recorded” stand apart in the source; their conditions may differ.

T2 sequence (P41144 whole entry): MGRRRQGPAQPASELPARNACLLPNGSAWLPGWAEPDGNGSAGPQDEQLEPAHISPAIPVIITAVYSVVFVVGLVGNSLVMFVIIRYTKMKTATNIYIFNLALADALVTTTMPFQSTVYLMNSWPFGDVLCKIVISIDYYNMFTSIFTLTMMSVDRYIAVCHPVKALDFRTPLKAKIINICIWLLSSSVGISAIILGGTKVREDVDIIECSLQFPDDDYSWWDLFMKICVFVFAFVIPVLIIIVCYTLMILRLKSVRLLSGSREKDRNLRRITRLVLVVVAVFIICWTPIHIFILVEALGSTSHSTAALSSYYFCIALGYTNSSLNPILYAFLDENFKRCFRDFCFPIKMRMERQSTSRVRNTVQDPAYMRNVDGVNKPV
T3 sequence (P32300 whole entry): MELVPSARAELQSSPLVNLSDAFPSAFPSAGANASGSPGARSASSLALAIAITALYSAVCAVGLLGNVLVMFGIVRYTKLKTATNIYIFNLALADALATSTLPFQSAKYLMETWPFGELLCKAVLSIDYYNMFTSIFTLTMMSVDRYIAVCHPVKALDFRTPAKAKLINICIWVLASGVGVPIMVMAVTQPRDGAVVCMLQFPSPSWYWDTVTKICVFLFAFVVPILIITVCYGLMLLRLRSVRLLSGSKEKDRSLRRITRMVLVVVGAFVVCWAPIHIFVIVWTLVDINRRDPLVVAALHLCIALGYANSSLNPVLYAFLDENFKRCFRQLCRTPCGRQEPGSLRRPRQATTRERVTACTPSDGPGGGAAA
T1 sequence (A0ACM8Q262 1-400): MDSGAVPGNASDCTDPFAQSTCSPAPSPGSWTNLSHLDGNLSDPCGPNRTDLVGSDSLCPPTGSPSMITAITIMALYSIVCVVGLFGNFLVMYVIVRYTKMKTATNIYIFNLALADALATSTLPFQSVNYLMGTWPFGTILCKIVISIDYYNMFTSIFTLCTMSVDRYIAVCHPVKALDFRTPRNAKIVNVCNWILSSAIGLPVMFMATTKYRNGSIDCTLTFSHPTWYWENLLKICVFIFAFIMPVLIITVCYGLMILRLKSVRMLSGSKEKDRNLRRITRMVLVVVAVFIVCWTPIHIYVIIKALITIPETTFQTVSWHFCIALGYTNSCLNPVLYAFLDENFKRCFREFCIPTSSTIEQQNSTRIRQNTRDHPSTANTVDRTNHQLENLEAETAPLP
T4 sequence (P33534 whole entry): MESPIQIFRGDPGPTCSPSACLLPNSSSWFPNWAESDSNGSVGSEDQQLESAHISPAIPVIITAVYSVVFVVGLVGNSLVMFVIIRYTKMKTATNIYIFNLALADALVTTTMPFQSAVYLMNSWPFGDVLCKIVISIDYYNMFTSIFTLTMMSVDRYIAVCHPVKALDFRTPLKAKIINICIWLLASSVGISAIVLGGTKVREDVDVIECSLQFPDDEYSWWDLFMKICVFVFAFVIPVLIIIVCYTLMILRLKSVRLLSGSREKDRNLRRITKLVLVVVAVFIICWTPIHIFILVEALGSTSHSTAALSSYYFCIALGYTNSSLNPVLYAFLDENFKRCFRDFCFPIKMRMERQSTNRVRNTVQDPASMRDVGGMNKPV

For `CC(=O)Oc1ccc2c3c1O[C@H]1c4[nH]c5c(c4C[C@@]4(O)[C@@H](C2)N(CC2CC2)CC[C@]314)C[C@@]1(O)[C@H]2Cc3ccc(OC(C)=O)c4c3[C@@]1(CCN2CC1CC1)[C@H]5O4` [IIId], the “GPI IC50 Ratio, Morphine Sulfate” value on mu receptor (setting [5]) was 8.0 (2). Moreover, the “GPI IC50 Ratio, Ethylketazocine” value on kappa opioid receptor [1] (setting [5]) is 697 (2). Also, the Emax at 1 µM (in the test on mouse vas deferens (MVD); in [2] (setting [6])) was 32% in each case. Besides, the “MVD IC50 Ratio, DADLE” value at delta opioid receptor (antagonist 20 nM) came to 3.5 ± 1.3.

For the compound `O=C1CC[C@@]2(O)[C@H]3Cc4ccc(O)c5c4[C@@]2(CCN3CC2CC2)[C@H]1O5` [naltrexone], the “potency at mu receptors compared with kappa” value in the test on mu receptors is on record as “much greater potency at mu receptors”.

`Oc1ccc2c3c1O[C@H]1c4[nH]c5c(c4C[C@@]4(O)[C@@H](C2)N(CC2CC2)CC[C@]314)C[C@@]1(O)[C@H]2Cc3ccc(O)c4c3[C@@]1(CCN2CC1CC1)[C@H]5O4` [IIIa]: the results for the “GPI IC50 Ratio, Morphine Sulfate” value on mu receptor (setting [7]) and at mu receptor (setting [5]) were 0.92 ± 0.16 and 4.7 ± 0.8, respectively. Besides, the “GPI IC50 Ratio, Ethylketazocine” value at kappa opioid receptor [1] (setting [7]) stood at 8.8 ± 0.13; at kappa opioid receptor [1] (setting [5]), 49.7 ± 15.6. For the same compound, the Emax at 1 µM in the test with mouse vas deferens (MVD) turned out to be 16%. Also, the Emax at 0.2 µM in test [2] (Cavia porcellus, @ 200 nM, read-out: GPI Agonism (maximal response at highest concentration)) was 14%. Also, the “antagonism of U50488H in GPI, IC50 ratio values compared with EK” value on kappa opioid receptor [3] is recorded as “higher IC50 ratio values were observed”. Moreover, the figures for the “GPI IC50 Ratio, U50488H” value on kappa opioid receptor [3] (antagonist 2 nM) and on kappa opioid receptor [3] (antagonist 20 nM) were 11.0 ± 1.1 and 178 ± 18, respectively. The “MVD IC50 Ratio, DADLE” value on delta opioid receptor (antagonist 20 nM) turned out to be 2.0 ± 0.1.

With `COc1ccc2c3c1O[C@H]1c4[nH]c5c(c4C[C@H]4[C@@H](C2)N(C)CC[C@]314)C[C@H]1[C@H]2Cc3ccc(OC)c4c3[C@@]1(CCN2C)[C@H]5O4` [IIIg], on mu receptor (compound 100 nM), the “GPI IC50 Ratio, Morphine Sulfate” value is reported as 0.5 ± 0.07. For the same compound, at kappa opioid receptor [1] (compound 100 nM), the “GPI IC50 Ratio, Ethylketazocine” value came to 0.4 ± 0.07. Moreover, the “GPI Agonism, potency of pure agonists relative to morphine = 1” value in test [2] is 0.2 ± 0.04.

As for `Cn1c2c(c3c1[C@@H]1Oc4c(O)ccc5c4[C@@]14CCN(CC1CC1)[C@H](C5)[C@]4(O)C3)C[C@@]1(O)[C@H]3Cc4ccc(O)c5c4[C@@]1(CCN3CC1CC1)[C@H]2O5` [IIIb], at mu receptor (20 nM), the “antagonism of morphine in GPI” value was “no significant antagonism of morphine was observed at 20 nM”. At mu receptor (setting [5]), the “GPI IC50 Ratio, Morphine Sulfate” value stood at 1.2 ± 0.3. Besides, on kappa opioid receptor [1] (setting [5]), the “GPI IC50 Ratio, Ethylketazocine” value is listed as 165 ± 30. For the same compound, in the test with mouse vas deferens (MVD), the “agonist activity in MVD” value is reported as “no agonist effect” and the Emax at 1 µM was 42%. Also, the “agonist activity in GPI” value in test [2] is given as “no agonist effect”. In [2] (setting [6]), the Emax at 1 µM came out at 0%. Besides, the “kappa-opioid antagonist selectivity” value with kappa-opioid receptors was “possesses the greatest kappa selectivity; also recorded: "pure" kappa-opioid receptor antagonist”. Further, at delta opioid receptor (antagonist 20 nM), the “MVD IC50 Ratio, DADLE” value is recorded as 4.5 ± 0.7. Moreover, the “ED50 ratio [(agonist+IIIb)/agonist control], morphine” value in test [4] is reported as 0.85. The “ED50 ratio [(agonist+IIIb)/agonist control], EK” value at kappa receptors (EK 50 nmol s.c.) came to 3.85. On kappa receptors (U50488H 50 nmol s.c.), the “ED50 ratio [(agonist+IIIb)/agonist control], U50488H” value is given as 15.71.

As to `COc1ccc2c3c1O[C@H]1c4[nH]c5c(c4C[C@@]4(O)[C@@H](C2)N(CC2CC2)CC[C@]314)C[C@@]1(O)[C@H]2Cc3ccc(OC)c4c3[C@@]1(CCN2CC1CC1)[C@H]5O4` [IIIe], the “GPI IC50 Ratio, Morphine Sulfate” value at mu receptor (setting [5]) is reported as 0.8 (2). In addition, the “GPI IC50 Ratio, Ethylketazocine” value on kappa opioid receptor [1] (setting [5]) is 4 (2). The Emax at 1 µM with mouse vas deferens (MVD) stood at 39%; in test [2] (setting [6]), 0%. Moreover, the “MVD IC50 Ratio, DADLE” value at delta opioid receptor (antagonist 20 nM) turned out to be 0.6 ± 0.1.

With `Oc1ccc2c3c1O[C@H]1[C@H](NCCOCCOCCN[C@@H]4CC[C@@]5(O)[C@H]6Cc7ccc(O)c8c7[C@@]5(CCN6CC5CC5)[C@H]4O8)CC[C@@]4(O)[C@@H](C2)N(CC2CC2)CC[C@]314` [TENA, reference compound], the “GPI IC50 Ratio, Morphine Sulfate” value on mu receptor (setting [5]) is recorded as 4.20 ± 1.20. Also, the “GPI IC50 Ratio, Ethylketazocine” value on kappa opioid receptor [1] (setting [5]) stood at 19.6 ± 2.40. The Emax at 0.01 µM in test [2] (Cavia porcellus, @ 10 nM, read-out: GPI Agonism (maximal response at highest concentration)) is 10%. The “times more effective in antagonizing U50488H relative to morphine” value with kappa receptor (U50488H vs morphine) is reported as “about 27 times”. Moreover, the “times more effective against ethylketazocine relative to morphine” value in the test on kappa receptor (ethylketazocine vs morphine) is given as “about five”. In addition, at delta opioid receptor (antagonist 20 nM), the “MVD IC50 Ratio, DADLE” value stood at 1.2.

`CN1CC[C@]23c4c5ccc(O)c4O[C@H]2c2[nH]c4c(c2C[C@@]3(O)[C@H]1C5)C[C@@]1(O)[C@H]2Cc3ccc(O)c5c3[C@@]1(CCN2C)[C@H]4O5` [IIIh]: the “GPI IC50 Ratio, Morphine Sulfate” value at mu receptor (compound 50 nM) was found to be 0.9 ± 0.2. Moreover, the “GPI IC50 Ratio, Ethylketazocine” value on kappa opioid receptor [1] (compound 50 nM) turned out to be 0.4 ± 0.05. Also, in [2], the “GPI Agonism, potency of pure agonists relative to morphine = 1” value is listed as 0.23 ± 0.05.

Consider `CN1CC[C@]23c4c5ccc(O)c4O[C@H]2c2[nH]c4c(c2C[C@H]3[C@H]1C5)C[C@H]1[C@H]2Cc3ccc(O)c5c3[C@@]1(CCN2C)[C@H]4O5` [IIIf], for which, on mu receptor (compound 10 nM), the “GPI IC50 Ratio, Morphine Sulfate” value worked out at 0.3 ± 0.1. Also, the “GPI IC50 Ratio, Ethylketazocine” value on kappa opioid receptor [1] (compound 10 nM) is on record as 0.5 ± 0.04. For the same compound, the “GPI Agonism, potency of pure agonists relative to morphine = 1” value in test [2] was 3.1 ± 0.4.

On to `CCn1c2c(c3c1[C@@H]1Oc4c(O)ccc5c4[C@@]14CCN(CC1CC1)[C@H](C5)[C@]4(O)C3)C[C@@]1(O)[C@H]3Cc4ccc(O)c5c4[C@@]1(CCN3CC1CC1)[C@H]2O5` [IIIc], for which the “GPI IC50 Ratio, Morphine Sulfate” value on mu receptor (setting [5]) is 2.2 ± 0.7. Also, on kappa opioid receptor [1] (setting [5]), the “GPI IC50 Ratio, Ethylketazocine” value was found to be 147 ± 20. Also, the Emax at 1 µM stood at 41% with mouse vas deferens (MVD) and 0% in [2] (setting [6]). Further, the “MVD IC50 Ratio, DADLE” value at delta opioid receptor (antagonist 2 nM) worked out at 1.8 ± 0.3; on delta opioid receptor (antagonist 20 nM), 4.2 ± 1.1.
